Measurements: patent US11512042B2, “Enamine compounds for absorbance of electromagnetic energy” (Commonwealth Scientific and Industrial Research Organisation, priority 2015, dated 2022)

Test: UV absorbance spectrum in solution (λmax, λcrit, extinction coefficients)
Assay type: physicochemical
Conditions: for λcrit: critical wavelength; for E (1%, 1 cm): mass extinction coefficient; for ε: molar extinction coefficient, in M-1 cm-1 (unit assumed)
From the text: FIG. 1 is a graphical representation of the absorbance of compounds 142 and 143 measured in a 10 mm cuvette as 0.001% solutions in methanol (142 is the uppermost trace at peak point of approximately 330 nm); The synthesised benzoyl functionalised compounds and their spectroscopic properties can be seen in table 2 wherein; breakthrough denotes the value in nm where transmittance increases beyond 1%; steepness refers to the distance in nm over which transmittance increases from 1 to 80% (a higher value indicates a less steep transition from absorbing to transmitting and is generally unfavourable); and ^a denotes an average of multiple measurements. As a general comment, it can be noted that the benzoyl substituted compounds gave similar absorbance maxima to the corresponding trifluoroacetyl derivative.

SMILES | λmax [nm] | λcrit [nm] | E (1%, 1 cm) | ε
O=C(/C(=C\N(Cc1ccccc1)c1ccccc1)c1ccccc1)C(F)(F)F [Compound 162] | 329 | 365 | 620 | 23495
C=CCN(/C=C(\C(=O)C(F)(F)F)c1ccccc1)c1ccccc1 [Compound 172] | 331 | 365 | 673 | 22290
CCN(/C=C(\C(=O)C(F)(F)F)c1ccccc1)c1ccccc1C [Compound 177] | 320 | 354 | 707 | 23543
CCN(/C=C(\C(=O)C(F)(F)F)c1ccccc1)c1cccc2ccccc12 [Compound 189] | 324 | 357 | 634 | 23400
CCN(/C=C(\C(=O)C(F)(F)C(F)(F)C(F)(F)C(=O)/C(=C\N(CC)c1ccccc1)c1ccccc1)c1ccccc1)c1ccccc1 [Compound 190] | 330 | 370 | 616 | 40027
O=C(/C(=C\N1CCCCC1)c1ccccc1)C(F)(F)F [Compound 192] | 322 | 353 | 884 | 25028
O=C(/C(=C\N1CCCC1)c1ccccc1)C(F)(F)F [Compound 193] | 323 | 354 | 769 | 20673
O=C(/C(=C\N1CCN(/C=C(/C(=O)C(F)(F)F)c2ccccc2)CC1)c1ccccc1)C(F)(F)F [Compound 195] | 339 | 360 | 689 | 33248
CCCN(/C=C(\C(=O)C(F)(F)F)c1ccccc1)c1ccc(N(/C=C(\C(=O)C(F)(F)F)c2ccccc2)CCC)cc1 [Compound 196] | 344 | 378 | 714 | 41997
CCOc1ccc(/C(=C/N(CC)c2ccccc2)C(=O)C(F)(F)F)cc1 [Compound 197] | 335 | 369 | 1166 | 42359
O=C(/C(=C\N1CCOCC1)c1ccccc1)C(F)(F)F [Compound 209] | 320 | 351 | 855 | 24356

The next lines start with the values.

λmax [nm] | λcrit [nm] | E (1%, 1 cm) | ε | SMILES
354 | 383 | 811 | 26848 | O=C(/C(=C\N1CCCc2ccccc21)c1ccccc1)C(F)(F)F [Compound 163]
331 | 367 | 709 | 23605 | CCN(/C=C(\C(=O)C(F)(F)F)c1ccccc1)c1cccc(C)c1 [Compound 186]
321 | 352 | 687 | 22743 | O=C(/C(=C\N1CCc2ccccc2C1)c1ccccc1)C(F)(F)F [Compound 194]
368 | 389 | 890 | 29804 | O=C(/C(=C\N1CCc2cc(F)ccc21)c1ccccc1)C(F)(F)F [Compound 198]
360 | 386 | 975 | 32273 | Cc1cccc2c1N(/C=C(\C(=O)C(F)(F)F)c1ccccc1)CC2 [Compound 199]
355 | 387 | 903 | 32693 | O=C(/C(=C\N1CCc2ccc([N+](=O)[O-])cc21)c1ccccc1)C(F)(F)F [Compound 202]
371 | 391 | 1108 | 36692 | Cc1ccc2c(c1)CCN2/C=C(\C(=O)C(F)(F)F)c1ccccc1 [Compound 205]
398 | 396 | 1390 | 50315 | O=C(/C(=C\N1CCc2cc([N+](=O)[O-])ccc21)c1ccccc1)C(F)(F)F [Compound 206]
